These compounds were tested against PD-1/PD-L1 (Homo sapiens (Human), UniProt Q9NZQ7) (assay: PD-1/PD-L1 Homogenous Time-Resolved Fluorescence (HTRF) binding assay). Settings: PD-L1-His 10 nM, PD-1-Ig 20 nM.
PD-1/PD-L1, sequence (Q9NZQ7 other isoform, or with tags, fused parts or gaps): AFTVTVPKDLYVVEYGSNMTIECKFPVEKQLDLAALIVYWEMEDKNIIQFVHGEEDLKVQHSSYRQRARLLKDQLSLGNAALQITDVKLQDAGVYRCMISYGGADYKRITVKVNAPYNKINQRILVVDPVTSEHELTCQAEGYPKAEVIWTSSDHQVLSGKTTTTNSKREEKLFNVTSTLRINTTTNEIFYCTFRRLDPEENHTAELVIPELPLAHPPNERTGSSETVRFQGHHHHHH
Text: The ability of the compounds of formula (I) to bind to PD-L1 was investigated using a PD-1/PD-L1 Homogenous Time-Resolved Fluorescence (HTRF) binding assay.
Homogenous Time-Resolved Fluorescence (HTRF) binding assay.
The interaction of PD-1 and PD-L1 can be assessed using soluble, purified preparations of the extracellular domains of the two proteins. The PD-1 and PD-L1 protein extracellular domains were expressed as fusion proteins with detection tags, for PD-1, the tag was the Fc portion of Immunoglobulin (PD-1-Ig) and for PD-L1 it was the 6 histidine motif (PD-L1-His). All binding studies were performed in an HTRF assay buffer consisting of dPBS supplemented with 0.1% […] bovine serum albumin and 0.05% (v/v) Tween-20. For the h/PD-L1-His binding assay, inhibitors were pre-incubated with PD-L1-His (10 nM final) for 15m in 4 μl of assay buffer, followed by addition of PD-1-Ig (20 nM final) in 1 µl of assay buffer and further incubation for 15m. HTRF detection was achieved using europium crypate-labeled anti-Ig (1 nM final) and allophycocyanin (APC) labeled anti-His (20 nM final). Antibodies were diluted in HTRF detection buffer and 5 μl was dispensed on top of the binding reaction. The reaction mixture was allowed to equilibrate for 30 minutes and the resulting signal (665 nm/620 nm ratio) was obtained using an EnVision fluorometer. Additional binding assays were established between the human proteins PD-1-Ig/PD-L2-His (20 & 5 nM, respectively) and CD8O-His/PD-L1-Ig (100 & 10 nM, respectively).
Recombinant Proteins: Human PD-1 (25-167) with a C-terminal human Fc domain of immunoglobulin G (Ig) epitope tag [hPD-1 (25-167)-3S-IG] and human PD-L1 (18-239) with a C-terminal His epitope tag [hPD-L1(18-239)-TVMV-His] were expressed in HEK293T cells and purified sequentially by ProteinA affinity chromatography and size exclusion chromatography. Human PD-L2-His and CD8O-His was obtained through commercial sources.
The table below lists the IC50 values for representative examples of this disclosure measured in the PD-1/PD-L1 Homogenous Time-Resolved Fluorescence (HTRF) binding assay.
An IC50 of 1.4 nM was found for `CN1CCCC(COc2cccc(-c3cccc4c3CCC4Oc3cc(OCc4cncc(C#N)c4)c(CN4CCCC[C@H]4C(=O)O)cc3Cl)c2Cl)C1` (stereo partly drawn) [Example 1001, (2S)-1-(5-Chloro-4-((4-(2-chloro-3-((1-methylpiperidin-3-yl)methoxy)phenyl)-2,3-dihydro-1H-inden-1-yl)oxy)-2-((5-cyanopyridin-3-yl)methoxy)benzyl)piperidine-2-carboxylic acid] in this work.
An IC50 of 0.9 nM was found for `CN1CCCC(COc2cccc(-c3cccc4c3CCC4Oc3cc(OCc4cncc(C#N)c4)c(CN[C@](C)(CO)C(=O)O)cc3Cl)c2Cl)C1` (stereo partly drawn) [Example 1002, (2R)-2-((5-Chloro-4-((4-(2-chloro-3-((1-methylpiperidin-3-yl)methoxy)phenyl)-2,3-dihydro-1H-inden-1-yl)oxy)-2-((5-cyanopyridin-3-yl)methoxy)benzyl)amino)-3-hydroxy-2-methylpropanoic acid] in this work.
An IC50 of 9.1 nM was found for `CN1CCCC(COc2cccc(-c3cccc4c3CCC4Oc3cc(OCc4cncc(C#N)c4)c(CO)cc3Cl)c2Cl)C1` (centres unmarked) [Example 1003, 5-((4-Chloro-5-((4-(2-chloro-3-((1-methylpiperidin-3-yl)methoxy)phenyl)-2,3-dihydro-1H-inden-1-yl)oxy)-2-(hydroxymethyl)phenoxy)-methyl)nicotinonitrile] in this work.
An IC50 of 3.9 nM was found for `CN1CCC[C@@H](COc2cccc(-c3cccc4c3CC[C@@H]4Oc3cc(OCc4cncc(C#N)c4)c(CN[C@](C)(CO)C(=O)O)cc3Cl)c2Cl)C1` [Example 1004] in this work.
An IC50 of 10.6 nM was found for `CN1CCC[C@@H](COc2cccc(-c3cccc4c3CC[C@@H]4Oc3cc(OCc4cncc(C#N)c4)c(CO)cc3Cl)c2Cl)C1` [Example 1005, 5-((4-chloro-5-(((S)-4-(2-chloro-3-(((R)-1-methylpiperidin-3-yl)methoxy)phenyl)-2,3-dihydro-1H-inden-1-yl)oxy)-2-(hydroxymethyl)phenoxy)methyl)nicotinonitrile] in this work.
An IC50 of 3.5 nM was found for `CN1CCC[C@@H](COc2cccc(-c3cccc4c3CC[C@H]4Oc3cc(OCc4cncc(C#N)c4)c(CN[C@](C)(CO)C(=O)O)cc3Cl)c2Cl)C1` [Example 1006, (R)-2-((5-chloro-4-(((R)-4-(2-chloro-3-(((R)-1-methylpiperidin-3-yl)methoxy)phenyl)-2,3-dihydro-1H-inden-1-yl)oxy)-2-((5-cyanopyridin-3-yl)methoxy)benzyl)amino)-3-hydroxy-2-methylpropanoic acid] in this work.
An IC50 of 4.3 nM was found for `CN1CCC[C@@H](COc2cccc(-c3cccc4c3CC[C@H]4Oc3cc(OCc4cncc(C#N)c4)c(CO)cc3Cl)c2Cl)C1` [Example 1007, 5-((4-chloro-5-(((R)-4-(2-chloro-3-(((R)-1-methylpiperidin-3-yl)methoxy)phenyl)-2,3-dihydro-1H-inden-1-yl)oxy)-2-(hydroxymethyl)phenoxy)methyl)nicotinonitrile] in this work.
An IC50 of 3 nM was found for `CN1CCC[C@H](COc2cccc(-c3cccc4c3CC[C@@H]4Oc3cc(OCc4cncc(C#N)c4)c(CN[C@](C)(CO)C(=O)O)cc3Cl)c2Cl)C1` [Example 1008, (R)-2-((5-chloro-4-(((S)-4-(2-chloro-3-(((S)-1-methylpiperidin-3-yl)methoxy)phenyl)-2,3-dihydro-1H-inden-1-yl)oxy)-2-((5-cyanopyridin-3-yl)methoxy)benzyl)amino)-3-hydroxy-2-methylpropanoic acid] in this work.
An IC50 of 24.1 nM was found for `CN1CCC[C@H](COc2cccc(-c3cccc4c3CC[C@@H]4Oc3cc(OCc4cncc(C#N)c4)c(CO)cc3Cl)c2Cl)C1` [Example 1009, 5-((4-chloro-5-(((S)-4-(2-chloro-3-(((S)-1-methylpiperidin-3-yl)methoxy)phenyl)-2,3-dihydro-1H-inden-1-yl)oxy)-2-(hydroxymethyl)phenoxy)methyl)nicotinonitrile] in this work.
An IC50 of 2 nM was found for `CN1CCC[C@H](COc2cccc(-c3cccc4c3CC[C@H]4Oc3cc(OCc4cncc(C#N)c4)c(CN[C@](C)(CO)C(=O)O)cc3Cl)c2Cl)C1` [Example 1010, (R)-2-((5-chloro-4-(((R)-4-(2-chloro-3-(((S)-1-methylpiperidin-3-yl)methoxy)phenyl)-2,3-dihydro-1H-inden-1-yl)oxy)-2-((5-cyanopyridin-3-yl)methoxy)benzyl)amino)-3-hydroxy-2-methylpropanoic acid] in this work.
An IC50 of 10.4 nM was found for `CN1CCC[C@H](COc2cccc(-c3cccc4c3CC[C@H]4Oc3cc(OCc4cncc(C#N)c4)c(CO)cc3Cl)c2Cl)C1` [Example 1011, 5-((4-chloro-5-(((R)-4-(2-chloro-3-(((S)-1-methylpiperidin-3-yl)methoxy)phenyl)-2,3-dihydro-1H-inden-1-yl)oxy)-2-(hydroxymethyl)phenoxy)methyl)nicotinonitrile] in this work.
An IC50 of 1.8 nM was found for `Cc1c(OCCCN2CC[C@@H](O)C2)cccc1-c1cccc2c1CCC2Oc1cc(OCc2cncc(C#N)c2)c(CN[C@](C)(CO)C(=O)O)cc1Cl` (stereo partly drawn) [Example 1012, (2R)-2-((5-Chloro-2-((5-cyanopyridin-3-yl)methoxy)-4-((4-(3-(3-((R)-3-hydroxypyrrolidin-1-yl)propoxy)-2-methylphenyl)-2,3-dihydro-1H-inden-1-yl)oxy)benzyl)-amino)-3-hydroxy-2-methylpropanoic acid] in this work.
An IC50 of 18.1 nM was found for `Cc1c(OCCCN2CC[C@@H](O)C2)cccc1-c1cccc2c1CCC2Oc1cc(OCc2cncc(C#N)c2)c(CO)cc1Cl` (stereo partly drawn) [Example 1013, 5-((4-Chloro-2-(hydroxymethyl)-5-((4-(3-(3-((R)-3-hydroxypyrrolidin-1-yl)propoxy)-2-methylphenyl)-2,3-dihydro-1H-inden-1-yl)oxy)phenoxy)methyl)nicotinonitrile] in this work.
An IC50 of 5.8 nM was found for `Cc1c(OCCCN2CC[C@@H](O)C2)cccc1-c1cccc2c1CCC2Oc1cc(OCc2cncc(C#N)c2)c(CN2CCCC[C@H]2C(=O)O)cc1Cl` (stereo partly drawn) [Example 1014, (2S)-1-(5-Chloro-2-((5-cyanopyridin-3-yl)methoxy)-4-((4-(3-(3-((R)-3-hydroxypyrrolidin-1-yl)propoxy)-2-methylphenyl)-2,3-dihydro-1H-inden-1-yl)oxy)benzyl)-piperidine-2-carboxylic acid] in this work.
An IC50 of 1.9 nM was found for `Cc1c(OCCCN2CC[C@@H](O)C2)cccc1-c1cccc2c1CCC2Oc1cc(OCc2cncc(C#N)c2)c(CN[C@@H](CCO)C(=O)O)cc1Cl` (stereo partly drawn) [Example 1015, (5-chloro-2-((5-cyanopyridin-3-yl)methoxy)-4-((4-(3-(3-((R)-3-hydroxypyrrolidin-1-yl)propoxy)-2-methylphenyl)-2,3-dihydro-1H-inden-1-yl)oxy)benzyl)-L-homoserine] in this work.
An IC50 of 3.4 nM was found for `CC(=O)NC1CCN(CCCOc2cccc(-c3cccc4c3CCC4Oc3cc(OCc4cncc(C#N)c4)c(CN[C@](C)(CO)C(=O)O)cc3Cl)c2Cl)CC1` (stereo partly drawn) [Example 1016, (2R)-2-((4-((4-(3-(3-(4-Acetamidopiperidin-1-yl)propoxy)-2-chlorophenyl)-2,3-dihydro-1H-inden-1-yl)oxy)-5-chloro-2-((5-cyanopyridin-3-yl)methoxy)benzyl)amino)-3-hydroxy-2-methylpropanoic acid] in this work.
An IC50 of 0.2 nM was found for `CC(=O)NC1CCN(CCCOc2cccc(-c3cccc4c3CCC4Oc3cc(OCc4cncc(C#N)c4)c(CN4CCCC[C@H]4C(=O)O)cc3Cl)c2Cl)CC1` (stereo partly drawn) [Example 1017, (2S)-1-(4-((4-(3-(3-(4-Acetamidopiperidin-1-yl)propoxy)-2-chlorophenyl)-2,3-dihydro-1H-inden-1-yl)oxy)-5-chloro-2-((5-cyanopyridin-3-yl)methoxy)benzyl)piperidine-2-carboxylic acid] in this work.
An IC50 of 2.9 nM was found for `CC(=O)NC1CCN(CCCOc2cccc(-c3cccc4c3CCC4Oc3cc(OCc4cncc(C#N)c4)c(CN[C@@H](CCO)C(=O)O)cc3Cl)c2Cl)CC1` (stereo partly drawn) [Example 1018, (4-((4-(3-(3-(4-Acetamidopiperidin-1-yl)propoxy)-2-chlorophenyl)-2,3-dihydro-1H-inden-1-yl)oxy)-5-chloro-2-((5-cyanopyridin-3-yl)methoxy)benzyl)-L-homoserine] in this work.
An IC50 of 2.5 nM was found for `C[C@](CO)(NCc1cc(Cl)c(OC2CCc3c(-c4cccc(OCCCNC[C@H](O)CO)c4Cl)cccc32)cc1OCc1cncc(C#N)c1)C(=O)O` (stereo partly drawn) [Example 1019, (2R)-2-((5-chloro-4-((4-(2-chloro-3-(3-(((S)-2,3-dihydroxypropyl)amino)propoxy)phenyl)-2,3-dihydro-1H-inden-1-yl)oxy)-2-((5-cyanopyridin-3-yl)methoxy)benzyl)amino)-3-hydroxy-2-methylpropanoic acid] in this work.
An IC50 of 10.9 nM was found for `N#Cc1cncc(COc2cc(OC3CCc4c(-c5cccc(OCCCNC[C@H](O)CO)c5Cl)cccc43)c(Cl)cc2CO)c1` (stereo partly drawn) [Example 1020, 5-((4-Chloro-5-((4-(2-chloro-3-(3-(((S)-2,3-dihydroxypropyl)amino)propoxy)phenyl)-2,3-dihydro-1H-inden-1-yl)oxy)-2-(hydroxymethyl)phenoxy)methyl)nicotinonitrile] in this work.
